According to patent US7520897B2, “Medical devices having antimicrobial properties” (Helix Medical, LLC, priority 2001, dated 2009):

Key:
[1] = Cytotoxicity (MEM Elution) of organic antimicrobial valve material; assay type: cell-based
[2] = Acute Oral Toxicity (7 day observation in the mouse); assay type: in vivo

With `CCCCOC(=O)c1ccc(O)cc1` [Butyl Paraben, butyl p-hydroxy Benzoate] as the compound, how does the “Cytotoxicity (MEM Elution) on the device with valve material” value [1] read?
The value was “Nontoxic”.

What about the “Acute Oral Toxicity (7 day observation in the mouse)” value [2] of the same compound?
Its value is “Nontoxic”.

For `Oc1cc(Cl)ccc1Oc1ccc(Cl)cc1Cl` [Triclosan, 2,4,4′-trichloro-2′-hydroxydiphenyl ether], which “Cytotoxicity (MEM Elution) on the device with valve material” value [1] is on record?
The value was “Nontoxic”.

And the “Cytotoxicity (MEM Elution) on the valve material alone” value ([1]; valve material alone)?
Its value is “Toxic”.

What about the “Acute Oral Toxicity (7 day observation in the mouse)” value [2] of the same compound?
Its value is “Nontoxic”.
